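The compound was tested at five concentrations on cells cultured in 96-well plates, with a 48-hour exposure period. GI50 = concentration required for 50% inhibition of growth.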 Calls of active or inactive are those of the source. No stated cut-off is given here; in the data, active = GI50 up to about 1.1 µM and inactive = higher.
What was measured:
Experiment in all cases: NCI anticancer screen, dose series, 48 h
[1] = tested on: BT-549
[2] = tested on: SK-OV-3
[3] = tested on: EKVX
[4] = tested on: OVCAR-8
[5] = tested on: MOLT-4
[6] = tested on: HCT-116
[7] = tested on: U-251
[8] = tested on: MDA-N
[9] = tested on: M14
[10] = tested on: NCI/ADR-RES
[11] = tested on: SK-MEL-5
[12] = tested on: OVCAR-4
[13] = tested on: SNB-75
[14] = tested on: UO-31
[15] = tested on: UACC-257
[16] = tested on: TK-10
[17] = tested on: A549
[18] = tested on: HL-60
[19] = tested on: RPMI-8226
[20] = tested on: OVCAR-3
[21] = tested on: 786-0
[22] = tested on: Malme-3M
[23] = tested on: HCC 2998
[24] = tested on: CCRF-CEM
[25] = tested on: SK-MEL-28
[26] = tested on: LOX IMVI
[27] = tested on: NCI-H522
[28] = tested on: ACHN
[29] = tested on: MDA-MB-435
[30] = tested on: OVCAR-5
[31] = tested on: CAKI-1
[32] = tested on: PC-3
[33] = tested on: KM12
[34] = tested on: A498
[35] = tested on: MCF7
[36] = tested on: SK-MEL-2
[37] = tested on: SF-539
[38] = tested on: SW-620
[39] = tested on: COLO 205
[40] = tested on: SNB-19
[41] = tested on: RXF 393
[42] = tested on: DU-145
[43] = tested on: MDA-MB-231
[44] = tested on: IGROV-1
[45] = tested on: HCT-15
[46] = tested on: UACC-62
[47] = tested on: SF-295
[48] = tested on: SN12C
[49] = tested on: K562
[50] = tested on: SR
[51] = tested on: HOP-92
[52] = tested on: NCI-H23
[53] = tested on: NCI-H460
[54] = tested on: HOP-62
[55] = tested on: HT-29
[56] = tested on: SF-268
[57] = tested on: T47D
[58] = tested on: NCI-H226
[59] = tested on: Hs-578T

Measured: GI50

CN(C)c1ccc(-c2c(C#N)c(S)n(NS(=O)(=O)c3ccccc3)c(=O)c2C#N)cc1
20.5 µM: [45]
inactive: [1] 21.1 µM | [2] 59.6 µM | [3] 32.6 µM | [4] 16.6 µM | [5] 16.6 µM | [6] 27.2 µM | [7] 24.1 µM | [8] 25 µM | [9] 27.6 µM | [10] 19.3 µM | [11] 19.8 µM | [12] 25.6 µM | [13] 25.4 µM | [14] 25.5 µM | [15] 45.8 µM | [16] 19 µM | [17] 37.9 µM | [18] 15.7 µM | [19] 13.9 µM | [20] 36.6 µM | [21] 17.1 µM | [22] 26.5 µM | [23] 70.8 µM | [24] 5.93 µM | [25] 36.1 µM | [26] 22.1 µM | [27] 14.7 µM | [28] 26.8 µM | [29] 21.5 µM | [30] 55.6 µM | [31] 23.8 µM | [32] 21.1 µM | [33] 16.2 µM | [34] 22.3 µM | [35] 24.2 µM | [36] 35.9 µM | [37] 18.8 µM | [38] 38.9 µM | [39] 38.5 µM | [40] 48.1 µM | [41] 20.4 µM | [42] 63.5 µM | [43] 22.3 µM | [44] 15.8 µM | [46] 20.5 µM | [47] 31 µM | [48] 20.2 µM | [49] 30.7 µM | [50] 10 µM | [51] 25 µM | [52] 30.8 µM

O=C(O)CCCn1nnc2c(=O)[nH][nH]c(=O)c21
> 100 µM: [45]
inactive: [1] > 100 µM | [3] > 100 µM | [4] > 100 µM | [5] > 100 µM | [53] > 100 µM | [6] > 100 µM | [7] > 100 µM | [8] > 100 µM | [9] > 100 µM | [10] > 100 µM | [11] > 100 µM | [12] > 100 µM | [14] > 100 µM | [15] > 100 µM | [16] > 100 µM | [17] > 100 µM | [18] > 100 µM | [19] > 100 µM | [20] > 100 µM | [21] > 100 µM | [22] > 100 µM | [23] > 100 µM | [24] > 100 µM | [25] > 100 µM | [26] > 100 µM | [28] > 100 µM | [29] > 100 µM | [30] > 100 µM | [31] > 100 µM | [32] > 100 µM | [33] > 100 µM | [54] > 100 µM | [35] > 100 µM | [36] > 100 µM | [39] > 100 µM | [40] > 100 µM | [42] > 100 µM | [43] > 100 µM | [55] > 100 µM | [47] > 100 µM | [48] > 100 µM | [49] > 100 µM | [50] > 100 µM | [51] > 100 µM | [52] > 100 µM

CCOc1ncn(-c2ccc(NC(=S)NC3OC(CO)C(O)C(O)C3O)cc2)n1 (stereo unspecified)
> 100 µM: [45]
inactive: [56] > 100 µM | [1] > 100 µM | [2] > 100 µM | [3] > 100 µM | [4] > 100 µM | [5] > 100 µM | [53] > 100 µM | [6] > 100 µM | [7] > 100 µM | [8] > 100 µM | [9] > 100 µM | [11] > 100 µM | [12] > 100 µM | [13] > 100 µM | [14] > 100 µM | [15] > 100 µM | [16] > 100 µM | [17] > 100 µM | [18] > 100 µM | [19] > 100 µM | [20] > 100 µM | [21] > 100 µM | [23] > 100 µM | [24] > 100 µM | [25] > 100 µM | [57] > 100 µM | [26] > 100 µM | [27] > 100 µM | [29] > 100 µM | [30] > 100 µM | [32] > 100 µM | [33] > 100 µM | [54] > 100 µM | [35] > 100 µM | [37] > 100 µM | [38] > 100 µM | [39] > 100 µM | [40] > 100 µM | [42] > 100 µM | [43] > 100 µM | [44] > 100 µM | [46] > 100 µM | [55] > 100 µM | [47] > 100 µM | [48] > 100 µM | [49] > 100 µM | [50] > 100 µM | [51] > 100 µM | [52] > 100 µM

O=C1NC(c2ccc3ccccc3c2)Nc2ccccc21 (stereo unspecified)
14.8 µM: [45]
inactive: [56] > 100 µM | [1] 5.26 µM | [2] 53.5 µM | [3] 45.6 µM | [4] 33.4 µM | [53] 25.3 µM | [6] 33.1 µM | [7] > 100 µM | [9] 35.9 µM | [10] 62.4 µM | [11] 20 µM | [12] 58.5 µM | [13] 75.7 µM | [14] 64.9 µM | [15] 57.9 µM | [16] > 100 µM | [18] 15.2 µM | [19] 29.9 µM | [58] 32.1 µM | [21] 45.7 µM | [23] 51.9 µM | [24] 30.6 µM | [59] 57.4 µM | [25] > 100 µM | [57] 71.4 µM | [26] 58.7 µM | [28] 48.1 µM | [29] 3.12 µM | [31] 59.7 µM | [32] 27.9 µM | [33] 21.1 µM | [34] 56 µM | [54] 41 µM | [35] 46.1 µM | [36] 35.9 µM | [37] 20.7 µM | [38] 43.8 µM | [39] 26.3 µM | [40] 51.8 µM | [41] 51.9 µM | [42] 49.5 µM | [43] > 100 µM | [44] 23.6 µM | [46] 21.9 µM | [55] 24.8 µM | [47] 35.3 µM | [49] 2.54 µM | [50] 5.83 µM | [51] 36.7 µM | [52] 24.5 µM

CCc1c(-c2ccccc2)[nH]c2ccccc2c1=O
28.2 µM: [45]
active: [14] 0.0412 µM
inactive: [56] 80.7 µM | [1] 59.4 µM | [2] 28.1 µM | [3] 81.1 µM | [5] 95.7 µM | [53] 5.16 µM | [6] 41.3 µM | [7] > 100 µM | [8] 47.5 µM | [9] 35.6 µM | [11] 27.4 µM | [12] 33.2 µM | [15] 64.7 µM | [16] 44.8 µM | [17] 13.4 µM | [18] > 100 µM | [19] 23.4 µM | [20] 54.1 µM | [58] 27.7 µM | [22] 72.4 µM | [23] 80.9 µM | [24] 72.4 µM | [25] 67.9 µM | [57] 46.5 µM | [26] 48.1 µM | [28] 36.7 µM | [29] 46.2 µM | [30] > 100 µM | [31] 19.8 µM | [33] 16.4 µM | [34] 33.4 µM | [54] 47.4 µM | [35] 57.1 µM | [36] 71.1 µM | [37] 50.5 µM | [40] > 100 µM | [41] 27.1 µM | [42] 76.9 µM | [43] 70.6 µM | [46] 28.8 µM | [55] 57.7 µM | [48] > 100 µM | [49] 28.6 µM | [50] 49.1 µM | [52] 55.3 µM

From ChEMBL document CHEMBL1201862, “PubChem BioAssay data set” (2004)
